The values that follow come from US20230157952A1, “METHOD FOR IMPROVING THE STABILITY OF A PHARMACEUTICAL COMPOSITION COMPRISING A HIGH PENETRATION DRUG, AND THE PHARMACEUTICAL COMPOSITION OBTAINED THEREFROM” (Techfields Inc., priority 2020, published 2023).

The nature of this series: Effect of temperature (and pH) on the stability of the solution (purity). In kind it is physicochemical. As to conditions: 7% solution in water.

Consider `CCN(CC)CCOC(=O)COC(=O)Cc1c(C)n(C(=O)c2ccc(Cl)cc2)c2ccc(OC)cc12.Cl` [2-(diethylamino)ethyl 1-(4-chlorobenzoyl-5-methoxy-2-methyl-1H-indole-3-acetoxyacetate.HCl], for which the “Stability of the solution at a temperature higher than 40° C. and a pH lower than 3 or greater than 6” value is “not stable”.

Regarding `CCN(CC)CCOC(=O)Cc1ccccc1Oc1ccc(Cl)cc1Cl.Cl` [2-(diethylamino)ethyl 2-(2,4-dichlorophenoxy)benzeneacetate.HCl], the “Stability of the solution at a temperature higher than 40° C. and a pH lower than 3 or greater than 6” value is listed as “not stable”.

As for `CCN(CC)CCOC(=O)COc1nn(Cc2ccccc2)c2ccccc12.Cl` [2-(diethylamino)ethyl [(1-benzyl-1H-indazol-3-yl)oxy]acetate•HCl], the “Stability of the solution at a temperature higher than 40° C. and a pH lower than 3 or greater than 6” value was “not stable”.
